Experimental data from patent US9309242B2, “Substituted pyrido[2,3-b]pyrazines as FGFR kinase inhibitors” (priority 2011, dated 2016).
pIC50: −log10 of the molar value. Where two headings read alike, the source gives them in different places.

Assays:
FGFR1 (h) = FGFR1 (h) (Homo sapiens, UniProt P11362); experiment: FGFR1 (enzymatic assay), TR-FRET; format: biochemical; settings: average values if tested multiple times, read-out: FGFR 1 pIC50 (converted)
[1] = test system: Ba/F3-KDR-transfected cells; experiment: Ba/F3-KDR (plus IL3) cellular proliferation assay, counterscreen with 10 ng/ml murine IL3; format: cell-based; settings: plus IL3 (10 ng/ml murine IL3, counterscreen)
Outline: (§1)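 Read-out: resazurin-based Alamar Blue fluorescence (ex. 540, em. 590 nm) after 4 h. Before that, cells were incubated with compound for 24 h at 37° C. The counterscreen ran identically but with IL3 supplemented.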

[2] = biological target: Ba/F3-FGFR4-transfected cells (Homo sapiens, UniProt P22455); experiment: Ba/F3-FGFR4 cellular proliferation assay, Alamar Blue; format: cell-based
Outline: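 Fluorescence read-out (ex. 540 nm, em. 590 nm) of resazurin-based Alamar Blue after 4 h, following 24 h compound exposure of Ba/F3-FGFR4-transfected cells (20000/well) at 37° C, 5% CO2.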

FGFR2 (h) = FGFR2 (h) (Homo sapiens, UniProt P21802); experiment: FGFR2 (enzymatic assay), TR-FRET; format: biochemical; settings: enzymatic assay; average values if tested multiple times; read-out: FGFR 2 pIC50 (converted)
Sequence of FGFR2 (h) (P21802 22-821): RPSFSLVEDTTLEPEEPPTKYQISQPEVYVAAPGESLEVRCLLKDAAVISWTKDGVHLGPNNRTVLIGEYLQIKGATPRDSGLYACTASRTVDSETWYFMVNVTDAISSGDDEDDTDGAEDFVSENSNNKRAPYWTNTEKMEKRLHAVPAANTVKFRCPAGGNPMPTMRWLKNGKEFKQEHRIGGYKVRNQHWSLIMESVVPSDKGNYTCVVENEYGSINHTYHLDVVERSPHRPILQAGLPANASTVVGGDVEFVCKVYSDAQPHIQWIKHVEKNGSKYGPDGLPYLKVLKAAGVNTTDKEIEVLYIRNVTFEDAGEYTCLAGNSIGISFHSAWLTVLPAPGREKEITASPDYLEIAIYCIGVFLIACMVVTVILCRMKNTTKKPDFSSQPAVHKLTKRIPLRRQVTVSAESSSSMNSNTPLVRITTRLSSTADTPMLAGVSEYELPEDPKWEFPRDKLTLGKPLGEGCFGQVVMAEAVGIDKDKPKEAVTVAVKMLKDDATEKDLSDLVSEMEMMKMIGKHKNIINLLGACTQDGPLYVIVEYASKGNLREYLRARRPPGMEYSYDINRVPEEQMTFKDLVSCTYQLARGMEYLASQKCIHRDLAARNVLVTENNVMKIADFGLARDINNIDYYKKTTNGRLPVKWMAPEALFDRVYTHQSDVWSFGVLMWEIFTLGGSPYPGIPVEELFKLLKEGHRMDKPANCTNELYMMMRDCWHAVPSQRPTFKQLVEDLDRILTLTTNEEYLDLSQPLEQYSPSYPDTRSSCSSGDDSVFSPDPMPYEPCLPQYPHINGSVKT
Outline: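 hFGFR2 150 ng/ml; Btn-Flt3 500 nM; ATP 0.4 μM; 50 mM HEPES pH 7.5, 6 mM MnCl2, 1 mM DTT, 0.1 mM Na3VO4, 0.01% Triton-X-100; 1% DMSO final.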

FGFR4 (h) = FGFR4 (h) (Homo sapiens, UniProt P22455); experiment: FGFR4 (enzymatic assay), TR-FRET; format: biochemical; settings: FGFR 4 pIC50, enzymatic assay; average values if tested multiple times
[3] = biological target: T1, Ba/F3-FGFR3-transfected cells (Homo sapiens, UniProt P22607); experiment: Ba/F3-FGFR3 (minus IL3) cellular proliferation assay, Alamar Blue; format: cell-based
T1 construct: BAF3-FGFR3 (MIN IL3) pIC50; other: minus IL3
Outline: (§2)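 Read-out: resazurin-based Alamar Blue fluorescence (ex 540 nm, em 590 nm) after a 4 h dye incubation. FGFR3-transfected Ba/F3 cells, 20000 per well, are exposed to compound for 24 h at 37° C in RPMI-1640/10% FBS. Plus-IL3 counterscreen adds 10 ng/ml murine IL3.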

[4] = biological target: T2, Ba/F3-KDR-transfected cells (Homo sapiens, UniProt P35968); experiment: Ba/F3-KDR (minus IL3) cellular proliferation assay, Alamar Blue; format: cell-based
T2 construct: BAF3-KDR (MIN IL3) pIC50; other: minus IL3
T2 sequence (P35968 whole entry, change not shown): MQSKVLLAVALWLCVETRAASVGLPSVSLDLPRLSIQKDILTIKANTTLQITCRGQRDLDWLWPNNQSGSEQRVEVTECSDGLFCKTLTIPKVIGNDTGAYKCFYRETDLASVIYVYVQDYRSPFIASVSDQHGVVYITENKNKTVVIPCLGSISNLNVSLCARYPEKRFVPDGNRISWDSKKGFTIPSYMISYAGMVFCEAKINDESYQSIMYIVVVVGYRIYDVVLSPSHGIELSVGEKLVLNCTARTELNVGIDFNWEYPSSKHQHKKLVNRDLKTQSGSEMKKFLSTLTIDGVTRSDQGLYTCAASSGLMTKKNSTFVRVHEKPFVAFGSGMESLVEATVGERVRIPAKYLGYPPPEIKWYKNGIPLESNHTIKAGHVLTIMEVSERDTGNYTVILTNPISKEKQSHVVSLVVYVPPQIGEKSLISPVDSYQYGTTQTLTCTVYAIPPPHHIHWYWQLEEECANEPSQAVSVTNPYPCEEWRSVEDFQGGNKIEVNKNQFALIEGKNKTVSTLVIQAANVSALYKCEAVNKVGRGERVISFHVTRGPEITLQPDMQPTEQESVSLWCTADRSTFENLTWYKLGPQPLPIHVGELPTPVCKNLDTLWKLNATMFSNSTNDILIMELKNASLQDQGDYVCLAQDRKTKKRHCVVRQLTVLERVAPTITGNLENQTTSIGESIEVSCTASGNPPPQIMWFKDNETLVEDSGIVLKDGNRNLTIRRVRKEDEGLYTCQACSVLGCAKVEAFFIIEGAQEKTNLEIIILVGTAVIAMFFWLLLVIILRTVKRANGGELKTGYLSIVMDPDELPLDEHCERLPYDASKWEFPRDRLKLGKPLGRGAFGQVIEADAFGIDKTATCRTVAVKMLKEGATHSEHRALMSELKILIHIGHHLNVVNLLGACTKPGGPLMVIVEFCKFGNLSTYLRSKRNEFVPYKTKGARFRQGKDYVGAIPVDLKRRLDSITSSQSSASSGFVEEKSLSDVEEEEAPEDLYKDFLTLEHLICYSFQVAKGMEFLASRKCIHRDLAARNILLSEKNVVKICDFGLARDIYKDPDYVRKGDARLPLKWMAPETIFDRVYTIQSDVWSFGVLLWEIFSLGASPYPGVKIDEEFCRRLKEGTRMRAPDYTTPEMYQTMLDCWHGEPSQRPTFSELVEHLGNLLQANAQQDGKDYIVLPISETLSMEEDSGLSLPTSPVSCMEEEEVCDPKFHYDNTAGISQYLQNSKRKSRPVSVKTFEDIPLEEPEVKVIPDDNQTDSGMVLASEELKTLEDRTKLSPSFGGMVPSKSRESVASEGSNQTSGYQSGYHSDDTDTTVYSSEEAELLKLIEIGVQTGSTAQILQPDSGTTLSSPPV
Outline: as §1

[5] = test system: Ba/F3-FGFR1-transfected cells; experiment: Ba/F3-FGFR1 (plus IL3) cellular proliferation assay, counterscreen with 10 ng/ml murine IL3; format: cell-based; settings: plus IL3 (10 ng/ml murine IL3, counterscreen); for IC50: read-out: BAF3-FGFR1 (PLUS IL3) pIC50 (converted)
Outline: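 Proliferation read-out: resazurin-based Alamar Blue fluorescence (540/590 nm) after 4 h, following 24 h compound treatment of 20000 Ba/F3-FGFR1 cells per well in 10% FBS RPMI at 37° C. IL3 counterscreen used the same protocol plus 10 ng/ml murine IL3.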

[6] = biological target: T3, Ba/F3-FGFR1-transfected cells (Homo sapiens, UniProt P11362); experiment: Ba/F3-FGFR1 (minus IL3) cellular proliferation assay, Alamar Blue; format: cell-based
T3 construct: BAF3-FGFR1 (MIN IL3) pIC50; other: minus IL3
T3 sequence (P11362 whole entry, change not shown): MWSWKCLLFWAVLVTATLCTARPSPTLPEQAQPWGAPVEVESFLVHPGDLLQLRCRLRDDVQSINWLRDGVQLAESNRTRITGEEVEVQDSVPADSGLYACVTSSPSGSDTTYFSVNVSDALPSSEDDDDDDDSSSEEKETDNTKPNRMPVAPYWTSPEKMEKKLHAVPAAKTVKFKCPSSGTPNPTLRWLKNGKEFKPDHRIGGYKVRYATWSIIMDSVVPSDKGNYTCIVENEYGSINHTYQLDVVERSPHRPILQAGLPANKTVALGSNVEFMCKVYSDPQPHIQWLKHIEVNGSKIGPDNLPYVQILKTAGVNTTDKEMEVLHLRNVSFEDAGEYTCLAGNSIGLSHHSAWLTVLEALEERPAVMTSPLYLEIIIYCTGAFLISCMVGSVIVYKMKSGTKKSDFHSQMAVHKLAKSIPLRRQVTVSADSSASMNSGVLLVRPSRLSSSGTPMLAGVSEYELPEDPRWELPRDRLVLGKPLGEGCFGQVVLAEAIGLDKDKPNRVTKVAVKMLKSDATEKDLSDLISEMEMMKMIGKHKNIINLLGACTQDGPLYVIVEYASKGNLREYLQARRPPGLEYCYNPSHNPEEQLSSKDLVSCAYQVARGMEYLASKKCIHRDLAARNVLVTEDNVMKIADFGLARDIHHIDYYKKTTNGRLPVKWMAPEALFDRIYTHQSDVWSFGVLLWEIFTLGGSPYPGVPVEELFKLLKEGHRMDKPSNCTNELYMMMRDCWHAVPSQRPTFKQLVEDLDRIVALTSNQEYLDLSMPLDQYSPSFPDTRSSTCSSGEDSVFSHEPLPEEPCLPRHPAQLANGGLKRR
Outline: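 Read-out: resazurin reduction, fluorescence ex 540 nm/em 590 nm after 4 h Alamar Blue at 37 °C. Before that, FGFR1-transfected Ba/F3 cells (20000/well) sat with compound for 24 h in RPMI-1640/10% FBS/2 mM L-Gln.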

KDR (h) = KDR (h) (Homo sapiens, UniProt P35968); experiment: KDR (VEGFR2) (enzymatic assay), TR-FRET; format: biochemical; settings: read-out: VEGFR 2 (KDR) pIC50 (converted)
Sequence of KDR (h) (P35968 20-1356): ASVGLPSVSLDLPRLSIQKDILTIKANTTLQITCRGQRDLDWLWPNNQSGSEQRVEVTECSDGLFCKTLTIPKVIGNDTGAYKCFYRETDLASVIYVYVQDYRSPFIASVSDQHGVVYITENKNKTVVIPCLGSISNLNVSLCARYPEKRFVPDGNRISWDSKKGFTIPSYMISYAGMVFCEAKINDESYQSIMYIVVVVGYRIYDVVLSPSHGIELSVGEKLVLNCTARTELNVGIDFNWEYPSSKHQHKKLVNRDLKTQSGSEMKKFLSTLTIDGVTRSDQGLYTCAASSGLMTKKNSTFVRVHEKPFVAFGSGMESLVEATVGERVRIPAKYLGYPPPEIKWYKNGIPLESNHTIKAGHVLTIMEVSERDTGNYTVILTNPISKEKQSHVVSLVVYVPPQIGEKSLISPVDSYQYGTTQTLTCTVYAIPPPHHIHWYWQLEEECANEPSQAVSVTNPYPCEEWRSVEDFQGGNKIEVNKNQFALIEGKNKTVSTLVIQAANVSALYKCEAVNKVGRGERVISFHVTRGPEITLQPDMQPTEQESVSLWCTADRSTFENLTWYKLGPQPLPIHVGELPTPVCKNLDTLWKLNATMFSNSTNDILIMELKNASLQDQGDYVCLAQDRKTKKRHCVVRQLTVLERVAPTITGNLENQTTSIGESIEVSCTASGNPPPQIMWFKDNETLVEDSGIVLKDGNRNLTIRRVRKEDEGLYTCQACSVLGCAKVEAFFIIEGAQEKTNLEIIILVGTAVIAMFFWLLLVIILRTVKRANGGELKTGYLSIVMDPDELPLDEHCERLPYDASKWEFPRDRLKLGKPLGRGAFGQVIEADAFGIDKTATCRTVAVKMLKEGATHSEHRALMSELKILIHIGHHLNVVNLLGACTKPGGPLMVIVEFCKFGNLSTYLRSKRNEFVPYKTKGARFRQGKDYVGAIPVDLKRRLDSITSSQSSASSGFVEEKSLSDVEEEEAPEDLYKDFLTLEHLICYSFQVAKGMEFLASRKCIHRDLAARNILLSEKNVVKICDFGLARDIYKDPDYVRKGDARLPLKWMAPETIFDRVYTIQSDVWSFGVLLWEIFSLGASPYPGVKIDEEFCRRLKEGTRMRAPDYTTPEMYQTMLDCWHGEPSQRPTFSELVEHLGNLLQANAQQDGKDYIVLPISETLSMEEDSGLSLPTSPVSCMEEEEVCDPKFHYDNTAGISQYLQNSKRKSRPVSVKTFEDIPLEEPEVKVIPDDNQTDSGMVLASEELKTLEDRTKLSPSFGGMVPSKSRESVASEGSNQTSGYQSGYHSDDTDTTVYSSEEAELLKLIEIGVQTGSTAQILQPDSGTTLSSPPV
Outline: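 3 μM ATP, 500 nM Btn-Flt3 substrate, 150 ng/ml kinase; HEPES pH 7.5 with MnCl2, DTT, vanadate, Triton; 1% DMSO. 120 min RT. Stop: EDTA + Eu-anti-P-Tyr + SA-XL-665, 60 min RT. Readout TR-FRET ex340/em620, 655 nm, RFU.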

[7] = test system: Ba/F3-FGFR3-transfected cells; experiment: Ba/F3-FGFR3 (plus IL3) cellular proliferation assay, counterscreen with 10 ng/ml murine IL3; format: cell-based; settings: plus IL3 (10 ng/ml murine IL3, counterscreen); for IC50: read-out: BAF3-FGFR3 (PLUS IL3) pIC50 (converted)
Outline: as §2

FGFR3 (h) = FGFR3 (h) (Homo sapiens, UniProt P22607); experiment: FGFR3 (enzymatic assay), TR-FRET; format: biochemical; settings: average values if tested multiple times, read-out: FGFR 3 pIC50 (converted)
Excerpt: Time-Resolved Fluorescence Resonance Energy Transfer (TR-FRET) signal (ex340 nm.

[8] = average values if tested multiple times

Sequence of FGFR1 (h) (P11362 22-822): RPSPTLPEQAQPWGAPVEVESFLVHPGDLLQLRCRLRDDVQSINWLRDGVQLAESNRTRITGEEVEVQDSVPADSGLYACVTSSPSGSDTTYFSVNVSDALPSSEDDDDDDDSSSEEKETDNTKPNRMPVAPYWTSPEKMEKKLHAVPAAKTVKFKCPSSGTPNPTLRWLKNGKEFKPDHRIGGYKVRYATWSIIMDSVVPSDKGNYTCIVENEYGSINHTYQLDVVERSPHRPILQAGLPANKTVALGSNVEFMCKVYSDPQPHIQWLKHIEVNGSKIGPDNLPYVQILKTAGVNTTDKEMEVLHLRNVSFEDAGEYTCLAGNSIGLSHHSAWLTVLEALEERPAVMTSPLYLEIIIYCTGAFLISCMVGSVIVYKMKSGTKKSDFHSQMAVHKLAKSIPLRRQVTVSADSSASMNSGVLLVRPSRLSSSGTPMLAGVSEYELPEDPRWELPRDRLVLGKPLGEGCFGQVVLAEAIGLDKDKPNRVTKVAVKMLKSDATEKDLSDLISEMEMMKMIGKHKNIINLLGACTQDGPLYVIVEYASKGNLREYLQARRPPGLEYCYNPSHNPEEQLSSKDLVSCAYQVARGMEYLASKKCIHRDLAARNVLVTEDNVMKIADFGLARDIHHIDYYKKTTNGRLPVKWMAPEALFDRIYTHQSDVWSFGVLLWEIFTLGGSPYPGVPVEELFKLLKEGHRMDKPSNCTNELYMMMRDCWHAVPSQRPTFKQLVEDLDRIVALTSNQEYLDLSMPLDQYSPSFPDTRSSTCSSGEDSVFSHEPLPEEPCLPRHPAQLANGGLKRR

SMILES | IC50 (FGFR1 (h)) | BAF3-KDR (PLUS IL3) pIC50 [1] | BAF3-FGFR4 pIC50 [2] | IC50 (FGFR2 (h)) | pIC50 (FGFR4 (h)) | BAF3-FGFR3 (MIN IL3) pIC50 [3] | melting point | BAF3-KDR (MIN IL3) pIC50 [4] | BAF3-FGFR1 (PLUS IL3) pIC50 [5] | BAF3-FGFR1 (MIN IL3) pIC50 [6] | IC50 (KDR (h); [8]) | BAF3-FGFR3 (PLUS IL3) pIC50 [7] | IC50 (FGFR3 (h)) | IC50 ([1]; read-out: BAF3-KDR (PLUS IL3) pIC50 (converted)) | IC50 [5] | IC50 (KDR (h)) | IC50 [7]
COc1cc(OC)cc(N(CC2CCC(=O)N2)c2ccc3ncc(-c4cnn(C)c4)nc3n2)c1 (stereo not shown) [Compound 54] | 6.76 nM | <5 | 6.05 | 4.9 nM | 7.76 | 6.83 | 125 °C | 5.39 | <5 | 6.64 | 66.1 nM | <5 | 3.02 nM | – | – | – | –
COc1cc(OC)c(F)c(/N=c2\ccc3ncc(-c4cnn(C)c4)nc3n2CC2CCC(=O)N2)c1F (stereo not shown) [Compound 47] | 0.661 nM | <5 | 6.70 | 1.41 nM | 8.84 | ~7.76 | 169 °C | 6.28 | <5 | 7.86 | 12.6 nM | <5 | ~0.933 nM | – | – | – | –
COc1cc(OC)cc(N(CCNC(C)=O)c2ccc3ncc(-c4cnn(C)c4)nc3n2)c1 [Compound 235] | – | – | – | – | – | – | 193 °C | 5.62 | – | – | – | – | – | > 10 µM | > 10 µM | 79.4 nM | > 10 µM
COc1cc(OC)c(F)c(/N=c2\ccc3ncc(-c4cnn(C)c4)nc3n2CCCO)c1F (single isomer, unassigned) [Compound 17] | 0.251 nM | – | – | 1.26 nM | 9.30 | 8.6 | 206 °C | 6.8 | – | 8.7 | 3.98 nM | – | 0.398 nM | – | > 10 µM | – | > 10 µM
